The values that follow come from a melting point compilation (Tetko et al.; mined from patent text by program, amines drawn as free bases though some values may be those of a salt).

Molecules are shown by their SMILES. Where only a bound is given, the exact number is not on record here.

With `CCOC(=O)c1c[nH]cc1-c1ccc(C)cc1`, the melting point (usually the temperature of the solid-liquid transition) fell in the range of 154 to 155 °C.

`CC(Oc1cc2sc(NC(=O)CCCN3CCCC3)nc2cc1F)c1c(Cl)ccc(F)c1Cl` (centres undefined): the melting point lay within 153 to 157 °C. With `Cc1c(Cl)c(C=O)c(C)c2c1CC(C)(C)C2`, the melting point was determined as 127 °C.

Consider `O=C(CC1CCOCC1)Nc1cccc2nc(N[C@@H]3CCc4ccccc43)ccc12`, for which the melting point came to 211 °C. The result for `O=C(O)CC(c1ccc(OCc2ccc3ccccc3n2)cc1)c1ccc(OCc2ccc3ccccc3n2)cc1` reads 94 to 111 °C. The compound `CCC(C)C(CO)NC(=O)CC(O)C(CC(C)C)NC(=O)C(Cc1cccs1)NC(=O)C(Cc1cccc2ccccc12)NC(=O)OCc1ccccc1` (mixture of isomers) returned a melting point of 160 to 162 °C.

`CCn1nc2c(N)nc3ccccc3c2c1CC1(F)CCN(C(=O)NC(C)C)CC1` had a melting point of 205 to 207 °C. The result for `CC(=O)OC1CCN(c2ccc3[nH]c(=O)ccc3c2)CC1` reads 245 to 250 °C. For `COc1cc(C#N)ccc1C=NO`, the melting point lay in the range of 170 to 171 °C. `CS(=O)(=O)OCC1(c2ccc(Cl)cc2)CCC1` returned a melting point of 66 to 70 °C. Then `c1ccc(-c2nc3ccc(N4CCC(N5CCCC5)CC4)nn3c2-c2ccncc2)cc1`, with 165 to 166 °C; and `CCc1cn2c(N)c(Cl)cc(C(=O)NC3CCN(CCCOC)CC3)c2n1`, with 179 °C; and `CN(C)Cc1cccc(NCCCNc2nc(N)nn2C)c1`, with 101 to 102 °C.

With `O=C(CCCCCCCCCCN1CCN(c2ccccc2)CC1)Nc1ccc(O)cc1`, the melting point was in the range of 160 to 162 °C. The compound `COc1ccc(C(=O)c2ccc(OCc3nc(-c4ccccc4)oc3C)cc2)c(OC(C)(C)C(=O)O)c1` came in with a melting point of 175 to 177 °C. Then `CCCCCCCCCCCCCCCCCNC(=O)OCC(CO)Oc1ccon1` (centres undefined), with 71 to 72 °C. As for `C#CC[C@@H](NC(=O)OC(C)(C)C)c1nc2cc(Cl)ccc2c(=O)n1Nc1ccccc1`, the melting point lay in the range of 155 to 157 °C. `CSCC(O)C1(Sc2ccccc2)C(=O)N2C1CCOC2(C)C` (centres undefined) registered a melting point of 83 to 85 °C. The result for `CCCCCCCCCCCCCCCCCCN(CCCCCCCCCCCCCCCCCC)Cc1ccc(CN(CCO)CCO)cc1` reads 49 to 50 °C; that for `O=C1CC(c2ccccc2)C(=S)N1c1ccc(Cl)cc1` (centres undefined), 153 to 155 °C; that for `CC(=O)NC[C@H]1CN(c2ccc(N3CCC(n4nnc(-c5ccccc5)n4)CC3)c(F)c2)C(=O)O1`, 212 to 214 °C.

`O=C(O)C1=Cc2cc(Cl)cc(C#Cc3ccccc3)c2OC1C(F)(F)F` (centres undefined) gave a melting point of 190 to 192 °C. Regarding `C[C@@H](n1cnn(-c2ccc(OCC(F)(F)C(F)(F)F)cc2)c1=O)[C@@]1(c2ccc(F)cc2F)CO1`, the melting point was 128 to 129 °C. `NC(P(=O)(O)O)P(=O)(O)O` gave a melting point of 255 to 265 °C.

As for `COc1ccc2c(c1)c(-c1cc3nccnc3[nH]1)cn2CCCN`, the melting point is 95 to 100 °C. `CC(C)OC1CCC(=O)N1S(=O)(=O)C=Cc1ccccc1` (centres undefined) gave a melting point of 92 to 94 °C. For the compound `CCN(CCSCc1[nH]cnc1C)C(=N)NC#N`, the melting point was in the range of 118 to 120 °C. Compound `Cc1ccc2c(c1)[C@@H]1CN(C)CC[C@@H]1CC2=O` (relative stereo) gave a melting point greater than 250 °C. In turn, `COC(=O)CCCc1cc2nc(Cl)ccc2n1S(=O)(=O)c1ccc2c(c1)CCN2C(C)=O` displayed a melting point of 123 °C. The compound `CC12CCC3C(CC4OC45CC=CCC35C)C1CC=C2Br` (centres undefined) returned a melting point of 146 to 147 °C.

Regarding `COc1c(N2CC3CCCC3(N)C2)c(F)cc2c(=O)c(C(=O)O)cn(C3CC3F)c12` (centres undefined), the melting point was 169 to 172 °C.

In the case of `CCOC(=O)CCCCCCc1ccc2ccccc2c1O`, the melting point was in the range of 41 to 42 °C. `COc1cc(C)nc(NC(=O)NS(=O)(=O)c2cccc3c2OC(C)(C)O3)n1`: the melting point fell in the range of 180 to 183 °C. Then `CCCCn1c(=O)c2nc(-c3ccc(/C=C/C(=O)O)cc3)[nH]c2n(CCCC)c1=O`, with 350 to 355 °C.
